{
  "source": "patent US11542316B2",
  "about": "“S-Arrestin peptides and therapeutic uses thereof” (APITOPE INTERNATIONAL NV, priority 2017, dated 2023)",
  "key": {"Solubility of peptides": {"experiment": "Solubility of peptides", "format": "physicochemical", "description": "The solubility of potential apitopes from S—Ag are determined by visual observations and turbidity measurement by UV spectrophotometry at 280 nm. The solubility of the peptides can be modified by adding amino acids ‘GKK’ or ‘KKK’ (or similar) on both the C- and N-terminus of the sequence. Modifications that may be suitable are described in WO2014/072958 (which is hereby incorporated by reference).\nFor some of these peptides, the parental peptides were insoluble, and solubility is a critical parameter for them to work as a tolerogenic peptide. Several end-terminal modifications can be used and as example used here they were improved by addition of 3 lysines before and after the original peptide sequence (labelled as ‘-KKK’ versions)."}, "[1]": {"test_system": "LN cells and splenocytes upon SAg or peptide restimulation", "experiment": "Ex vivo tolerization experiment, DR3tg mice", "format": "in vivo", "settings": "IFN-γ; for reduction in response to HIP-115 and HIP-115NE3 peptides: highest concentrations of probing peptide", "description": "FIG. 7: Ex vivo tolerisation protocol. Mice are injected subcutaneously in the flank with 0.1 μg/ml, 1 μg/ml and 10 μg/ml peptide on days −15, −13 and −11, followed by 3 injections of 100 μg/ml on days −8, −6 and −4 (escalating dose regime). On day 0, mice are immunized subcutaneously at the base of the tail with SAg/CFA or peptide/CFA. Mice are sacrificed 10 days after immunization to measure proliferation of LN cells and splenocytes upon SAg or peptide restimulation. LN, lymph nodes.\nFIG. 8: Ex vivo tolerance induction by HIP-115NE3-KKK apitope. DR3 mice are injected subcutaneously in the flank with 0.1 μg/ml, 1 μg/ml and 10 μg/ml HIP-115NE3-KKK on days −15, −13 and −11, followed by 3 injections of 100 μg/ml on days −8, −6 and −4 (escalating dose regime). On day 0, mice are immunized subcutaneously at the base of the tail with HIP-115/CFA. Mice are sacrificed 10 days after immunization to measure proliferation of LN cells and splenocytes upon SAg or peptide restimulation. Data represent mean±SEM of the concentration or OD values for the PBS-treated mice (black lines) and peptide-treated mice (color lines). Two-way ANOVA was used to measure overall treatment effects on T cell activation and p-values are written in the graphs. Bonferonni post-hoc testing was used and significant differences are indicated in the graphs (* p<0.05; **** p<0.0001). LN, lymph nodes. (A) Tolerisation against SAg in LN. IFN-γ production expressed as IFN-γ concentration (pg/ml). (B) Tolerisation against SAg in spleen. IFN-γ production expressed as IFN-γ concentration (pg/ml). (C) Tolerisation against HIP-115 and HIP-115NE3 peptides in LN. IFN-γ production expressed as OD values. (D) Tolerisation against HIP-115 and HIP-115NE3 peptides in spleen. IFN-γ production expressed as OD values.\nFIG. 9: Ex vivo tolerance induction by HIP-11B apitope. DR3 mice are injected subcutaneously in the flank with 0.1 μg/ml, 1 μg/ml and 10 μg/ml HIP-11B on days −15, −13 and −11, followed by 3 injections of 100 μg/ml on days −8, −6 and −4 (escalating dose regime). On day 0, mice are immunized subcutaneously at the base of the tail with HIP-11B/CFA. Mice are sacrificed 10 days after immunization to measure proliferation of LN cells and splenocytes upon SAg or peptide restimulation. Data represent mean±SEM of the concentration values for the PBS-treated mice (black lines) and peptide-treated mice (color lines). IFN-γ production expressed as IFN-γ concentration (pg/ml). Two-way ANOVA was used to measure overall treatment effects on T cell activation and p-values are written in the graphs. Bonferonni post-hoc testing was used and significant differences are indicated in the graphs (* p<0.05; **** p<0.0001). LN, lymph nodes. (A) Tolerisation against SAg in LN. (B) Tolerisation against SAg in spleen. (C) Tolerisation against HIP-11B peptide in LN. (D) Tolerisation against HIP-11B peptide in spleen.\nFIG. 10: Ex vivo tolerance induction by HIP-24DG apitope. DR3 mice are injected subcutaneously in the flank with 0.1 μg/ml, 1 μg/ml and 10 μg/ml HIP-24DG on days −15, −13 and −11, followed by 3 injections of 100 μg/ml on days −8, −6 and −4 (escalating dose regime). On day 0, mice are immunized subcutaneously at the base of the tail with HIP-24DG+HIP-24HM/CFA. Mice are sacrificed 10 days after immunization to measure proliferation of LN cells and splenocytes upon SAg or peptide restimulation. Data represent mean±SEM of the OD values for the PBS-treated mice (black lines) and peptide-treated mice (color lines). IFN-γ production expressed as OD values. LN, lymph nodes. Two-way ANOVA was used to measure overall treatment effects on T cell activation and p-values are written in the graphs. Bonferonni post-hoc testing was used and significant differences are indicated in the graphs (* p<0.05; ** p<0.01; *** p<0.001: **** p<0.0001). LN, lymph nodes. (A) Tolerisation against SAg in LN. (B) Tolerisation against HIP-24DG in LN. (C) Tolerisation against HIP-24HM2 peptide in LN. […]"}},
  "note": "Ends that are not written are not given here.",
  "data": [
    {"substance": "KKKAFVEQVANVVLKKK-NH2 [HIP-9K1-KKK, KKKAFVEQVANVVLKKK]", "values": [
      {"measurement": "solubility", "setting": "Solubility of peptides", "result": "soluble"}
    ]},
    {"substance": "KKKLTFRRDLYFSRVQVYKKK-NH2 [HIP-17J-KKK]", "values": [
      {"measurement": "tolerization against SAg", "setting": "[1]; spleen, DR3 mice, escalating dose regime s.c.", "result": "tolerization induced"}
    ]},
    {"substance": "KKKVIFKKISRDKSVTIYLGKKK-NH2 [HIP-115NE3-KKK]", "values": [
      {"measurement": "solubility", "setting": "Solubility of peptides", "result": "soluble"},
      {"measurement": "reduction in response to SAg", "setting": "[1]; LN and spleen, highest dose of SAg used for probing, escalating dose regime s.c.", "result": 70, "unit": "%"},
      {"measurement": "reduction in response to HIP-115 and HIP-115NE3 peptides", "setting": "[1]; LN", "result": 55, "unit": "%"},
      {"measurement": "reduction in response to HIP-115 and HIP-115NE3 peptides", "setting": "[1]; spleen", "result": 65, "unit": "%"}
    ]},
    {"substance": "LPLLANNRERRGIA-NH2 [HIP-24HM3, LPLLANNRERRGIA]", "values": [
      {"measurement": "solubility", "setting": "Solubility of peptides", "result": "soluble"}
    ]},
    {"substance": "LTKTLTLLPLLANNRERR-NH2 [HIP-24DG, LTKTLTLLPLLANNRERR]", "values": [
      {"measurement": "solubility", "setting": "Solubility of peptides", "result": "soluble"},
      {"measurement": "tolerization against the peptide itself / peptides of the same region", "setting": "[1]; LN, DR3 mice", "result": "some tolerization"},
      {"measurement": "tolerization against SAg", "setting": "[1]; LN, DR3 mice, escalating dose regime s.c.", "result": "tolerization induced"}
    ]},
    {"substance": "VIFKKISRDKSVTIYLG-NH2 [HIP-115NE3, VIFKKISRDKSVTIYLG]", "values": [
      {"measurement": "solubility", "setting": "Solubility of peptides", "result": "insoluble"}
    ]}
  ]
}
